According to patent US9573911B2, “Diphosphate mimetics and uses thereof” (President and Fellows of Harvard College, priority 2011, dated 2017):

What was measured:
Assay in all cases: Further kinase screen, Invitrogen Z'-LYTE
Assay type in all cases: biochemical
Settings in all cases: Table 3
[1] = target: T1, TYK2 (Homo sapiens, UniProt P29597)
T1 construct: purchased Invitrogen
Protocol: (§1) Kinase profiling was conducted using Invitrogen Z'-LYTE screening protocol and assay conditions found at www.invitrogen.com. Compound (2) inhibited PLK1 completely at 5 μM.
(§2) A further kinase screen was performed on Compounds (2), (4A), and (4B) using the assay described above.

[2] = target: T2, CAMK2A (CaMKII alpha) (Homo sapiens, UniProt Q9UQM7)
T2 construct: purchased Invitrogen
Protocol: as §1, §2

[3] = target: T3, RPS6KB1 (p70S6K) (Homo sapiens, UniProt P23443)
T3 construct: purchased Invitrogen
Protocol: as §1, §2

[4] = target: T4, CAMK4 (CaMKIV) (Homo sapiens, UniProt Q16566)
T4 construct: purchased Invitrogen
Protocol: as §1, §2

[5] = target: T5, SYK (Homo sapiens, UniProt P43405)
T5 construct: purchased Invitrogen
Protocol: as §1, §2

[6] = target: T6, RPS6KA5 (MSK1) (Homo sapiens, UniProt O75582)
T6 construct: purchased Invitrogen
Protocol: as §1, §2

[7] = target: T7, GSK3B (GSK3 beta) (Homo sapiens, UniProt P49841)
T7 construct: purchased Invitrogen
Protocol: as §1, §2

[8] = target: T8, CSNK1G3 (CK1 gamma 3) (Homo sapiens, UniProt Q9Y6M4)
T8 construct: purchased Invitrogen
Protocol: as §1, §2

[9] = target: T9, MAPKAPK2 (Homo sapiens, UniProt P49137)
T9 construct: purchased Invitrogen
Protocol: as §1, §2

[10] = target: T10, GRK6 (Homo sapiens, UniProt P43250)
T10 construct: purchased Invitrogen
Protocol: as §1, §2

[11] = target: T11, JAK3 (Homo sapiens, UniProt P52333)
T11 construct: purchased Invitrogen
T11 sequence (P52333 1-1124): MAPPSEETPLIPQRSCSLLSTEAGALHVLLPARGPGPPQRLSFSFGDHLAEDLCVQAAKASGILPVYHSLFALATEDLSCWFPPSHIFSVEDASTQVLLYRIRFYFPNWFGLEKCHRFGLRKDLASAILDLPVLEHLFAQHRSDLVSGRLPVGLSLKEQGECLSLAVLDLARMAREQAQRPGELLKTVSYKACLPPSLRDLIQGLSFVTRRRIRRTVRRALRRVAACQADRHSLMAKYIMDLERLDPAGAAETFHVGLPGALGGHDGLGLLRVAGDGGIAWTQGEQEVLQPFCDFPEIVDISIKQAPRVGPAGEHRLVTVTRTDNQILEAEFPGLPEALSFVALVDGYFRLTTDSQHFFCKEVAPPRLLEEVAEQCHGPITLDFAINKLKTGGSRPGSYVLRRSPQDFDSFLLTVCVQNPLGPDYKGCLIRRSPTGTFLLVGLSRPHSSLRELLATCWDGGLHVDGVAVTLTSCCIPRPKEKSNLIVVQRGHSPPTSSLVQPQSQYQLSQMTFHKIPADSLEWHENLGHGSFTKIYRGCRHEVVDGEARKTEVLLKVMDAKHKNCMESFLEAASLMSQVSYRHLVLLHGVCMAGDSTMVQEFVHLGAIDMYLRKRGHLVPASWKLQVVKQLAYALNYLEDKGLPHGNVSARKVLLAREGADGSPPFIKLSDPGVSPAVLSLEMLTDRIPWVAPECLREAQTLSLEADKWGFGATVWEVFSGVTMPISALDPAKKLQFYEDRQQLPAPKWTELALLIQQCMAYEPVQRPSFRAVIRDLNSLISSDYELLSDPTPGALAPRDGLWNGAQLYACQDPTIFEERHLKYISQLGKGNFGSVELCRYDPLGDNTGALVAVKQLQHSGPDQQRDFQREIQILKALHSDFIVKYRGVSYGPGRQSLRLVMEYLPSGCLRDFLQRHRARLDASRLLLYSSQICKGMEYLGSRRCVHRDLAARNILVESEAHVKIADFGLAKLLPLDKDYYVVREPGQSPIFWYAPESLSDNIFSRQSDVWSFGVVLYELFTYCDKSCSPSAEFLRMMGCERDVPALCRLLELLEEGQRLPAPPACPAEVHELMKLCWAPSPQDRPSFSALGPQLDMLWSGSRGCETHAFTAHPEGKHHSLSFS
Protocol: as §1, §2

[12] = target: T12, SRPK1 (Homo sapiens, UniProt Q96SB4)
T12 construct: purchased Invitrogen
Protocol: as §1, §2

[13] = target: T13, SGK (SGK1) (Homo sapiens, UniProt O00141)
T13 construct: purchased Invitrogen
T13 sequence (O00141 1-431): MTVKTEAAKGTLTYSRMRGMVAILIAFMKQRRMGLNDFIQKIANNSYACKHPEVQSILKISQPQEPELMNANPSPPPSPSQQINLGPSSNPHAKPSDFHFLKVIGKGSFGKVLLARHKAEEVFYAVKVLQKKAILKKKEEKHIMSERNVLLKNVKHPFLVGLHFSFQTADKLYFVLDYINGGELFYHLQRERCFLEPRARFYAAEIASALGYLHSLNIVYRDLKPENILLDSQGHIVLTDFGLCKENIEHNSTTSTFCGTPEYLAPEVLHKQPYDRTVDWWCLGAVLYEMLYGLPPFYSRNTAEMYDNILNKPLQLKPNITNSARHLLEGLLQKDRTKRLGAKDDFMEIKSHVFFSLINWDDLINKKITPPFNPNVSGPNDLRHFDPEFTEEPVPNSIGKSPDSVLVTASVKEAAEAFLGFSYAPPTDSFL
Protocol: as §1, §2

[14] = target: T14, CDK2/cyclin A (Homo sapiens, UniProt P24941)
T14 construct: purchased Invitrogen
Protocol: as §1, §2

T8 sequence (Q9Y6M4 whole entry): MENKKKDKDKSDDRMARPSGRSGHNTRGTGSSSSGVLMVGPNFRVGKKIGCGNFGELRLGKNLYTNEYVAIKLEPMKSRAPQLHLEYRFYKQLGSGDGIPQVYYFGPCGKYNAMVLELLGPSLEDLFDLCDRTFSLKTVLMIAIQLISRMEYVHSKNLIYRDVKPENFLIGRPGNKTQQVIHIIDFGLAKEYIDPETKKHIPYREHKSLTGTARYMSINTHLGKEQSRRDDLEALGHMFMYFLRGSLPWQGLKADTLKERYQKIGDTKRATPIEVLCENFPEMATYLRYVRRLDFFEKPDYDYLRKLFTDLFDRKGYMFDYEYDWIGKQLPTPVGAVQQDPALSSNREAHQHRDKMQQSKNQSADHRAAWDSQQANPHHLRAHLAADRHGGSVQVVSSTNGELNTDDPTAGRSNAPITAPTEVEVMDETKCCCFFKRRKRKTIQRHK
T1 sequence (P29597 whole entry): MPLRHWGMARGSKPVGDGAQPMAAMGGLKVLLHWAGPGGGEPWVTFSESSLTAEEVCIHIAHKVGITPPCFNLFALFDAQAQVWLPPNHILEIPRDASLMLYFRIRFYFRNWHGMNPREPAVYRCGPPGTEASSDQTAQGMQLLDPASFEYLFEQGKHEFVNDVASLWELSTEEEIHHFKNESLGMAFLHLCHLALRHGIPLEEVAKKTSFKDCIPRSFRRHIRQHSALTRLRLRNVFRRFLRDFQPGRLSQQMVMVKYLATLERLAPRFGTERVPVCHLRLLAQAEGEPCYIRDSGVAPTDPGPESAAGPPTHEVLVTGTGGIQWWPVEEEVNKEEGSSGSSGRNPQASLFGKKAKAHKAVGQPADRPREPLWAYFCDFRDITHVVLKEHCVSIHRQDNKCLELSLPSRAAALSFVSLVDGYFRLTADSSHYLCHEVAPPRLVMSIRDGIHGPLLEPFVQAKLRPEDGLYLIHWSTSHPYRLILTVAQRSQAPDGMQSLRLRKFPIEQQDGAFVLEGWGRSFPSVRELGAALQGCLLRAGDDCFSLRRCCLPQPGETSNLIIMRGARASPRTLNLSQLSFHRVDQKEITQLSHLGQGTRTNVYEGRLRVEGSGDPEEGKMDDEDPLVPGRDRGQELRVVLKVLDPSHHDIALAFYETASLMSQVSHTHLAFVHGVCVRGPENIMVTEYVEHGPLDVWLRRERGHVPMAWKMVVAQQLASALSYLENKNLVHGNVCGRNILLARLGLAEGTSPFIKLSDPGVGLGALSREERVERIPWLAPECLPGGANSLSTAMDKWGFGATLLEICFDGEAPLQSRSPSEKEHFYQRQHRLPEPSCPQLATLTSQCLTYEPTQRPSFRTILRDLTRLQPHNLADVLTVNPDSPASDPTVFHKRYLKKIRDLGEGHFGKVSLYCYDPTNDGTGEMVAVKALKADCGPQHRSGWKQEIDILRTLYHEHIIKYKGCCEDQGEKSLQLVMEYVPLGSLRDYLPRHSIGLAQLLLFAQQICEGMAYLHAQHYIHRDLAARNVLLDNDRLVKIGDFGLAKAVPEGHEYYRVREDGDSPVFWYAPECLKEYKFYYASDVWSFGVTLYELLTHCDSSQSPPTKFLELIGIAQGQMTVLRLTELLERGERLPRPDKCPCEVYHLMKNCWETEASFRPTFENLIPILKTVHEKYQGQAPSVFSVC
T10 sequence (P43250 whole entry): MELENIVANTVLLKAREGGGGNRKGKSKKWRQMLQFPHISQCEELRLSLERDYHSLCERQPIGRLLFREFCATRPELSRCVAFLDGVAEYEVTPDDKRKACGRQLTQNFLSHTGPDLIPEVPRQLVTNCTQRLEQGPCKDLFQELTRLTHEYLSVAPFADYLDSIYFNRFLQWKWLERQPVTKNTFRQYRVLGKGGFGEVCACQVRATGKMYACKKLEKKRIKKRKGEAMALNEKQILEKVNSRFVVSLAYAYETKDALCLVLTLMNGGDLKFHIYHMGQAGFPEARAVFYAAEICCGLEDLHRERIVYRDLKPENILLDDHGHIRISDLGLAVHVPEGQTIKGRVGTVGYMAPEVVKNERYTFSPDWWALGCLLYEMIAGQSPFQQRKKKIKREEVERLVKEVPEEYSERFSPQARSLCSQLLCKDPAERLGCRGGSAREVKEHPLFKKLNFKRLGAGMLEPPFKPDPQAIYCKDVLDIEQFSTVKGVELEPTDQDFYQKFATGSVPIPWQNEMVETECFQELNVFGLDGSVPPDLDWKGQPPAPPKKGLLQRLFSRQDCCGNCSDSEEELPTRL
T6 sequence (O75582 whole entry): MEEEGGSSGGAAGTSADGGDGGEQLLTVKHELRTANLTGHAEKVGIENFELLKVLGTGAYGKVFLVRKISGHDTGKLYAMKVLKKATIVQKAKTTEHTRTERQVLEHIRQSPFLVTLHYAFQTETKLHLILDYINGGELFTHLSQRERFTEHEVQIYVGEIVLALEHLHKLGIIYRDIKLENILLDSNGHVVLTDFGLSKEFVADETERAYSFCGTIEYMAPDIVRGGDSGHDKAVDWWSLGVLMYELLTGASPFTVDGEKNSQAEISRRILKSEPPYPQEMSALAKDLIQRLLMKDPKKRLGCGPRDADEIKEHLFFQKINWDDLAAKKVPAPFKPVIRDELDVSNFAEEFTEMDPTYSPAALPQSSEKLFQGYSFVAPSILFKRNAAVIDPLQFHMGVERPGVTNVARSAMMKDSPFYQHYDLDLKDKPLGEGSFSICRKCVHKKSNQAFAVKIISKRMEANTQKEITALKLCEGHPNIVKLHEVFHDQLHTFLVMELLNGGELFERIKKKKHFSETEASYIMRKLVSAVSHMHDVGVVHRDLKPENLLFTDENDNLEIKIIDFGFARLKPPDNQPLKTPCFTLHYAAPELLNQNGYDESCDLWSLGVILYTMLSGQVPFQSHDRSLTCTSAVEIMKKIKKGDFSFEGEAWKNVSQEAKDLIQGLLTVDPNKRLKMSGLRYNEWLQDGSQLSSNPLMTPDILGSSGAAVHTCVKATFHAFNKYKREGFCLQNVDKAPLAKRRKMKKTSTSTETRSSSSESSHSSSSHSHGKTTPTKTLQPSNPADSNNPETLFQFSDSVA
T3 sequence (P23443 whole entry): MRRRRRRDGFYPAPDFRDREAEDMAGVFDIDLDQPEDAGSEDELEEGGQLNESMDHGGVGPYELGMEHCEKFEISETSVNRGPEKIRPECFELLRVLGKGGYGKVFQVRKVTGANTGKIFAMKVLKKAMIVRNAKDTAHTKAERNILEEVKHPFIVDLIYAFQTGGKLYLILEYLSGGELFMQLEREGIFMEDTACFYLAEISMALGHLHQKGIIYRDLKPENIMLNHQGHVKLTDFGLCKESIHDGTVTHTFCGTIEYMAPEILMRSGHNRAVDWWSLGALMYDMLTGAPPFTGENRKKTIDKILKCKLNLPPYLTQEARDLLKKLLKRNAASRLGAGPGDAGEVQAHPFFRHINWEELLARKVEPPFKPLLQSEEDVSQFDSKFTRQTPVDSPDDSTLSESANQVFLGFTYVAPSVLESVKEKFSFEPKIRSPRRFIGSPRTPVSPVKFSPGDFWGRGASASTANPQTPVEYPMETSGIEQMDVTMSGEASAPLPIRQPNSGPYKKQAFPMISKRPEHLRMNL
T9 sequence (P49137 whole entry): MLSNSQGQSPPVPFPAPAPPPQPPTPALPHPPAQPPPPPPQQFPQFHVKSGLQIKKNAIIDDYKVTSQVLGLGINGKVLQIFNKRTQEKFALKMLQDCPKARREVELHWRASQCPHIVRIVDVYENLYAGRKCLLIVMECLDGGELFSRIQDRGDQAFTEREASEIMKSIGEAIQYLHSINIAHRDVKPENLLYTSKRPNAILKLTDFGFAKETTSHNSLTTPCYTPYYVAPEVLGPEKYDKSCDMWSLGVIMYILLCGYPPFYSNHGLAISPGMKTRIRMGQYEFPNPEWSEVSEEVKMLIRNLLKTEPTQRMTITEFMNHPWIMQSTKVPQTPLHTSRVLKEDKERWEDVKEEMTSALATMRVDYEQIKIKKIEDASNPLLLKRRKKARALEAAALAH
T12 sequence (Q96SB4 whole entry): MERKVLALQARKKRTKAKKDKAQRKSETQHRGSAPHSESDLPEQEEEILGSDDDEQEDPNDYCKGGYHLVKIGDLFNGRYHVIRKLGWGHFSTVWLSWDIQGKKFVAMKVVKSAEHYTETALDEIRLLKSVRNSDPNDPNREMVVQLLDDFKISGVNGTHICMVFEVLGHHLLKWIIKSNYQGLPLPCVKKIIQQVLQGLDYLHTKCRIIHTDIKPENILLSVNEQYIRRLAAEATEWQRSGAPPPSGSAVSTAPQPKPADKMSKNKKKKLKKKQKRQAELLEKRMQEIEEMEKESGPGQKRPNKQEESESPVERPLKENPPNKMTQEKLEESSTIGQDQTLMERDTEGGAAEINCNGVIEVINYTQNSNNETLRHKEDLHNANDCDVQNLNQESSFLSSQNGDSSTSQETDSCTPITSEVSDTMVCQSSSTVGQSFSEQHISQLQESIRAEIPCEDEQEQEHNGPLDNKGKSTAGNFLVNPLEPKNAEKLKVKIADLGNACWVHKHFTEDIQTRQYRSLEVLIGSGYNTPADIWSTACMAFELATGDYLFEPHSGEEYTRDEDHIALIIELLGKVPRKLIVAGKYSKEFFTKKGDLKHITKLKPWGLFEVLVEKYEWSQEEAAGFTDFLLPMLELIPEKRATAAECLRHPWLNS
T7 sequence (P49841 whole entry): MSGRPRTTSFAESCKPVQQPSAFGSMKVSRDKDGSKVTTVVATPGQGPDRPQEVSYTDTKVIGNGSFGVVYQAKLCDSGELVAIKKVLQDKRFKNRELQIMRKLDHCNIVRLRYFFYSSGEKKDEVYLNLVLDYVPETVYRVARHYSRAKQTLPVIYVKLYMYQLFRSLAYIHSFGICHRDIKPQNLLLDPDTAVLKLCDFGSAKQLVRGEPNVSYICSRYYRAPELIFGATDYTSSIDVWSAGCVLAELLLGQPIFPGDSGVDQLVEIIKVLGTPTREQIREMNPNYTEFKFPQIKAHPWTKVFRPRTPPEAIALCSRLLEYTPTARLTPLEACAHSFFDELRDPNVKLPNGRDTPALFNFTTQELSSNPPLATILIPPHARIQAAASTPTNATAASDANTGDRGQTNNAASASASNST

COc1ccc(OC(=O)n2c(=O)oc3cc(C(C)=O)ccc32)cc1 [Compound 2]
% Inhibition Point 1 [1]: −98%
% Inhibition Point 2 [1]: −99%
% Inhibition mean [1]: −99%
% Inhibition Point 1 [2]: −14%
% Inhibition Point 2 [2]: −10%
% Inhibition mean [2]: −12%
% Inhibition Point 1 [3]: −138%
% Inhibition Point 2 [3]: −122%
% Inhibition mean [3]: −130%
% Inhibition Point 1 [4]: −159%
% Inhibition Point 2 [4]: −201%
% Inhibition mean [4]: −180%
% Inhibition Point 1 [5]: 4%
% Inhibition Point 2 [5]: −4%
% Inhibition mean [5]: 0%
% Inhibition Point 1 [6]: −215%
% Inhibition Point 2 [6]: −231%
% Inhibition mean [6]: −223%
% Inhibition Point 1 [7]: −7%
% Inhibition Point 2 [7]: 0%
% Inhibition mean [7]: −4%
% Inhibition Point 1 [8]: 13%
% Inhibition Point 2 [8]: 16%
% Inhibition mean [8]: 14%
% Inhibition Point 1 [9]: 0%
% Inhibition Point 2 [9]: −10%
% Inhibition mean [9]: −5%
% Inhibition Point 1 [10]: 14%
% Inhibition Point 2 [10]: 17%
% Inhibition mean [10]: 16%
% Inhibition Point 1 [11]: −90%
% Inhibition Point 2 [11]: −83%
% Inhibition mean [11]: −86%
% Inhibition Point 1 [12]: −49%
% Inhibition Point 2 [12]: −38%
% Inhibition mean [12]: −44%
% Inhibition Point 1 [13]: −234%
% Inhibition Point 2 [13]: −237%
% Inhibition mean [13]: −236%
% Inhibition Point 1 [14]: −297%
% Inhibition Point 2 [14]: −301%
% Inhibition mean [14]: −299%

COc1ccc(OC(=S)n2c(=O)oc3cc(C(C)=O)ccc32)cc1 [Compound 4A]
% Inhibition Point 1 [1]: 7%
% Inhibition Point 2 [1]: 11%
% Inhibition mean [1]: 9%
% Inhibition Point 1 [2]: 20%
% Inhibition Point 2 [2]: 24%
% Inhibition mean [2]: 22%
% Inhibition Point 1 [3]: 19%
% Inhibition Point 2 [3]: 22%
% Inhibition mean [3]: 21%
% Inhibition Point 1 [4]: 18%
% Inhibition Point 2 [4]: 24%
% Inhibition mean [4]: 21%
% Inhibition Point 1 [5]: 21%
% Inhibition Point 2 [5]: 24%
% Inhibition mean [5]: 23%
% Inhibition Point 1 [6]: 35%
% Inhibition Point 2 [6]: 32%
% Inhibition mean [6]: 33%
% Inhibition Point 1 [7]: 61%
% Inhibition Point 2 [7]: 60%
% Inhibition mean [7]: 60%
% Inhibition Point 1 [8]: 30%
% Inhibition Point 2 [8]: 31%
% Inhibition mean [8]: 31%
% Inhibition Point 1 [9]: 48%
% Inhibition Point 2 [9]: 53%
% Inhibition mean [9]: 51%
% Inhibition Point 1 [10]: 42%
% Inhibition Point 2 [10]: 43%
% Inhibition mean [10]: 42%
% Inhibition Point 1 [11]: 41%
% Inhibition Point 2 [11]: 30%
% Inhibition mean [11]: 36%
% Inhibition Point 1 [12]: −6%
% Inhibition Point 2 [12]: 2%
% Inhibition mean [12]: −2%
% Inhibition Point 1 [13]: 76%
% Inhibition Point 2 [13]: 75%
% Inhibition mean [13]: 76%
% Inhibition Point 1 [14]: 9%
% Inhibition Point 2 [14]: 9%
% Inhibition mean [14]: 9%

COc1ccc(OC(=O)n2c(=S)oc3cc(C(C)=O)ccc32)cc1 [Compound 4B]
% Inhibition Point 1 [1]: 17%
% Inhibition Point 2 [1]: 21%
% Inhibition mean [1]: 19%
% Inhibition Point 1 [2]: 57%
% Inhibition Point 2 [2]: 55%
% Inhibition mean [2]: 56%
% Inhibition Point 1 [3]: 35%
% Inhibition Point 2 [3]: 44%
% Inhibition mean [3]: 40%
% Inhibition Point 1 [4]: 52%
% Inhibition Point 2 [4]: 46%
% Inhibition mean [4]: 49%
% Inhibition Point 1 [5]: 58%
% Inhibition Point 2 [5]: 54%
% Inhibition mean [5]: 56%
% Inhibition Point 1 [6]: 49%
% Inhibition Point 2 [6]: 48%
% Inhibition mean [6]: 49%
% Inhibition Point 1 [7]: 92%
% Inhibition Point 2 [7]: 93%
% Inhibition mean [7]: 93%
% Inhibition Point 1 [8]: 51%
% Inhibition Point 2 [8]: 48%
% Inhibition mean [8]: 49%
% Inhibition Point 1 [9]: 90%
% Inhibition Point 2 [9]: 90%
% Inhibition mean [9]: 90%
% Inhibition Point 1 [10]: 71%
% Inhibition Point 2 [10]: 71%
% Inhibition mean [10]: 71%
% Inhibition Point 1 [11]: 65%
% Inhibition Point 2 [11]: 64%
% Inhibition mean [11]: 65%
% Inhibition Point 1 [12]: 0%
% Inhibition Point 2 [12]: 2%
% Inhibition mean [12]: 1%
% Inhibition Point 1 [13]: 72%
% Inhibition Point 2 [13]: 73%
% Inhibition mean [13]: 73%
% Inhibition Point 1 [14]: −2%
% Inhibition Point 2 [14]: 4%
% Inhibition mean [14]: 1%
